According to paper PMC2714422 (Journal of medicinal chemistry, 2009):
“Also recorded” adds a separate entry of the source.

Assays:
[1] = hydrochloride salt form of 5; prior formulation work, ref not given; cited from earlier work
[2] = system: SK-Mel cells; assay: Cellular polyamine levels in SK-Mel cells, compound alone; type: cell-based, human; conditions: 10 µM for 24 hrs
[3] = system: squamous cell carcinoma (SCC) tumors; assay: K6/ODC transgenic mouse squamous cell carcinoma model; type: in vivo
[4] = system: MDA-MB-231 cells; assay: Cellular polyamine depletion, PTI plus DFMO; type: cell-based, human; conditions: 5 days, 30 µM 5 or 0.1 µM 11 with 5.0 mM DFMO, 0.5 µM spermidine, 1.0 mM aminoguanidine
[5] = DFMO 0.5% in drinking water + 0.5 mg/kg 11 i.p. twice daily, 4 weeks

## NCCCC[C@@H](N)C(=O)NCCCNCCCCNCCCN [Compound 5, D-Lys-Spm]
[1]
  oral bioavailability, hydrochloride salt form: < 1%

## CCCCCCCC(=O)NCCCC[C@H](N)C(=O)NCCCNCCCCNCCCN [Compound 8]
[2]
  level of cellular polyamines, compound added alone: none of these agents influenced the level of cellular polyamines

## CCCCCCCCCCCCCCCC(=O)NCCCC[C@H](N)C(=O)NCCCNCCCCNCCCN [Compound 10, L-Lys-ε-(palmitoyl)-N^1-spermine]
[2]
  level of cellular polyamines, compound added alone: none of these agents influenced the level of cellular polyamines

## CCCCCCCCCCCCCCCC(=O)NCCCC[C@@H](N)C(=O)NCCCNCCCCNCCCN [Compound 11, D-Lys-ε-(palmitoyl)-N^1-spermine]
[3]; 11 at 0.5 mg/kg i.p. twice daily with DFMO, mice
  toxicity at efficacious dose level: no apparent toxicity
[3]; [5]
  SCCs with complete or near-complete responses (>95% volume reduction): 71%
  number of SCCs with complete responses out of 17: 9
[4]
  polyamine levels of the cell, combination with DFMO: potent reduction in the polyamine levels

## NCCC[C@](N)(C(=O)O)C(F)F [DFMO, α-difluoromethylornithine, reference compound]
[3]; DFMO alone in drinking water
  tumor growth effect of DFMO alone: moderate tumor growth inhibitory effects; also recorded: weak effect
[3]; DFMO alone, 6 weeks off-treatment after 4 week treatment
  DFMO alone treated tumors that re-grew: 11 of 12
